Measurements: patent publication US20250214983A1, “1,3,4-OXADIAZOLE TRIAZOLE COMPOUNDS AS HISTONE DEACETYLASE 6 INHIBITOR, AND PHARMACEUTICAL COMPOSITION COMPRISING THE SAME” (Chong Kun Dang Pharmaceutical Corp., priority 2022, published 2025)

Experiments:
human recombinant HDAC1 = molecular target: T1, human recombinant HDAC1 (Homo sapiens, UniProt Q13547); test: HDAC1 enzyme activity inhibition (HDAC Fluorimetric Drug Discovery Kit); format: biochemical; conditions: human recombinant HDAC1, Fluor de Lys substrate 10 μM, 30° C. 60 minutes
T1 construct: purchased Enzo Life Science, Inc. BML-SE456
T1 sequence (Q13547 whole entry): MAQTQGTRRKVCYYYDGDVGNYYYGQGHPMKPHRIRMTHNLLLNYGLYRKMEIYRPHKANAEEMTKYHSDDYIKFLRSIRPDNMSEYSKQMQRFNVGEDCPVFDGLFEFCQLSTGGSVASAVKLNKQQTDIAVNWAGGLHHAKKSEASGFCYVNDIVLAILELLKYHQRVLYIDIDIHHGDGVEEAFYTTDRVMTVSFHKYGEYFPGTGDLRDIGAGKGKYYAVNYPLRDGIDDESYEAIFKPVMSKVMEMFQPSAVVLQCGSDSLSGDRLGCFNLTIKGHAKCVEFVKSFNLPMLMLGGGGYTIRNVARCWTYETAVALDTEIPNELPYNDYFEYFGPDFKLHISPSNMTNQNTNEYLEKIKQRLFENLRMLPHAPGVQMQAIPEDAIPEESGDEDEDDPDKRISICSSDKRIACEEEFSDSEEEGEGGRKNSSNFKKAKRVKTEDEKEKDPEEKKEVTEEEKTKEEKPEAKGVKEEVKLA
Method: (§1) An experiment was conducted to identify the selectivity of the 1,3,4-oxadiazole triazole compound of the present invention to HDAC6 through an experiment on HDAC1 and HDAC6 enzyme activity inhibition.
(§2) The HDAC enzyme activity was measured with HDAC Fluorimetric Drug Discovery Kit (BML-AK511, 516) of Enzo Life Science, Inc. For the test on the HDAC1 enzyme activity, human recombinant HDAC1 (BML-SE456) was used as an enzyme source and Fluor de Lys®-“SIRT1 (BNL-KI177)” was used as a substrate. A 5-fold dilution of the compound was divided into a 96-well plate, after which 0.3 μg of the enzyme and 10 μM of the substrate were inserted into each well and subjected to reaction at 30° C. for 60 minutes, such that Fluor de Lys® Developer II (BML-KI176) was inserted thereinto and subjected to reaction for 30 minutes and finished. After that, a fluorescence value (Ex 360, Em 460) was measured with a multi-plate reader (Flexstation 3, Molecular Device). An experiment on HDAC6 enzyme was conducted in accordance with the same protocol as in the HDAC1 enzyme activity test method by using human recombinant HDAC6 (382180) of Calbiochem Inc. For final result values, each IC50 value was calculated with GraphPad Prism 4.0 program.

human recombinant HDAC6 = molecular target: T2, human recombinant HDAC6 (Homo sapiens, UniProt Q9UBN7); test: HDAC6 enzyme activity inhibition (HDAC Fluorimetric Drug Discovery Kit); format: biochemical; conditions: HDAC1 versus HDAC6
T2 construct: purchased Calbiochem Inc. 382180
T2 sequence (Q9UBN7 1-1215): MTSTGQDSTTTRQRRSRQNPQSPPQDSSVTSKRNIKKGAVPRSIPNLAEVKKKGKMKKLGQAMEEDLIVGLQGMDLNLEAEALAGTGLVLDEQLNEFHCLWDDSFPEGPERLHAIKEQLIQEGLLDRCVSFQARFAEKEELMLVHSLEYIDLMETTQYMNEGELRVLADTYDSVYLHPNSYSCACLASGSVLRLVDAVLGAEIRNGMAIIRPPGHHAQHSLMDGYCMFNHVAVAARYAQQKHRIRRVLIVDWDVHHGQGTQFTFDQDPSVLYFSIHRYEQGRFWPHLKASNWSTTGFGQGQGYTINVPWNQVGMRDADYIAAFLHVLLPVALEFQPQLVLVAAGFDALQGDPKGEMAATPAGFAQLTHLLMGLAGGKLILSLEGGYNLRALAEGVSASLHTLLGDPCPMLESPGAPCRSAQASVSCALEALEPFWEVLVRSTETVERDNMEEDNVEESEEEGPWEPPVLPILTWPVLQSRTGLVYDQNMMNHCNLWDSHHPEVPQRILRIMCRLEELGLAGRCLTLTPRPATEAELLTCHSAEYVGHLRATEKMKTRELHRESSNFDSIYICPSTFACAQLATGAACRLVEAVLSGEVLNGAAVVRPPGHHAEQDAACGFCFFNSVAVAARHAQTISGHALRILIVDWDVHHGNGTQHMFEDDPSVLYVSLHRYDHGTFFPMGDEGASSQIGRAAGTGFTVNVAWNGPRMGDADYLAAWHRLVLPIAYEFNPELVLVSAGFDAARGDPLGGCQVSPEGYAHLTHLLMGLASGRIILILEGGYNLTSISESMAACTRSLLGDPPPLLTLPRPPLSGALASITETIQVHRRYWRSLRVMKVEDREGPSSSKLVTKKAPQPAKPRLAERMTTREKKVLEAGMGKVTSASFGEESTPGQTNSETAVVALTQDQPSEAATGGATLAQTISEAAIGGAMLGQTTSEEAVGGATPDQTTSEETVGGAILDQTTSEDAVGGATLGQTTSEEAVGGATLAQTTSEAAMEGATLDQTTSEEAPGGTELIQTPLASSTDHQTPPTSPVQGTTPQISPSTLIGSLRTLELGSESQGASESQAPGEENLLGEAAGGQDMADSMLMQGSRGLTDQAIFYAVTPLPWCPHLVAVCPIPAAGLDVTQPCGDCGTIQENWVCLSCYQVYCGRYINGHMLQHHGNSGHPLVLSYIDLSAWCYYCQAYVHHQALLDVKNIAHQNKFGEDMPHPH
Method: as §1, §2

IC50 (human recombinant HDAC1)	HDAC6 selectivity (fold) (human recombinant HDAC6)	Compound
> 50 µM	2252 fold	FC(F)c1nnc(-c2ccc(Cn3cc(-c4ccc(CN5CCC5)cn4)nn3)nc2)o1 [Compound 2, 2-(6-((4-(5-(azetidin-1-ylmethyl)pyridin-2-yl)-1H-1,2,3-triazol-1-yl)methyl)pyridin-3-yl)-5-(difluoromethyl)-1,3,4-oxadiazole]
> 50 µM	1712 fold	FC(F)c1nnc(-c2ccc(Cn3cc(-c4ccc(CN5CCCC5)cn4)nn3)nc2)o1 [Compound 3, 2-(difluoromethyl)-5-(6-((4-(5-(pyrrolidin-1-ylmethyl)pyridin-2-yl)-1H-1,2,3-triazol-1-yl)methyl)pyridin-3-yl)-1,3,4-oxadiazole]
> 50 µM	1428 fold	CC1CCN(Cc2ccc(-c3cn(Cc4ccc(-c5nnc(C(F)F)o5)cn4)nn3)nc2)CC1 [Compound 4, 2-(difluoromethyl)-5-(6-((4-(5-((4-methylpiperidin-1-yl)methyl)pyridin-2-yl)-1H-1,2,3-triazol-1-yl)methyl)pyridin-3-yl)-1,3,4-oxadiazole]
> 50 µM	1547 fold	FC(F)c1nnc(-c2ccc(Cn3cc(-c4ccc(CN5CC[C@@H](F)C5)nc4)nn3)nc2)o1 [Compound 5, (R)-2-(difluoromethyl)-5-(6-((4-(6-((3-fluoropyrrolidin-1-yl)methyl)pyridin-3-yl)-1H-1,2,3-triazol-1-yl)methyl)pyridin-3-yl)-1,3,4-oxadiazole]
> 50 µM	1730 fold	CC1(C)CCN(Cc2ccc(-c3cn(Cc4ccc(-c5nnc(C(F)F)o5)cn4)nn3)cn2)CC1 [Compound 6, 2-(difluoromethyl)-5-(6-((4-(6-((4,4-dimethylpiperidin-1-yl)methyl)pyridin-3-yl)-1H-1,2,3-triazol-1-yl)methyl)pyridin-3-yl)-1,3,4-oxadiazole]
> 50 µM	1253 fold	FC(F)c1nnc(-c2ccc(Cn3cc(-c4ccc(CN5CC[C@H](F)C5)s4)nn3)nc2)o1 [Compound 7, (S)-2-(difluoromethyl)-5-(6-((4-(5-((3-fluoropyrrolidin-1-yl)methyl)thiophen-2-yl)-1H-1,2,3-triazol-1-yl)methyl)pyridin-3-yl)-1,3,4-oxadiazole]
> 50 µM	1048 fold	FC(F)c1nnc(-c2ccc(Cn3cc(-c4ccc(CN5CC[C@@H](F)C5)s4)nn3)nc2)o1 [Compound 8, (R)-2-(difluoromethyl)-5-(6-((4-(5-((3-fluoropyrrolidin-1-yl)methyl)thiophen-2-yl)-1H-1,2,3-triazol-1-yl)methyl)pyridin-3-yl)-1,3,4-oxadiazole]
> 50 µM	1577 fold	CN(C)Cc1cc(-c2cn(Cc3ccc(-c4nnc(C(F)F)o4)cn3)nn2)cs1 [Compound 11, 1-(4-(1-((5-(5-(difluoromethyl)-1,3,4-oxadiazol-2-yl)pyridin-2-yl)methyl)-1H-1,2,3-triazol-4-yl)thiophen-2-yl)-N,N-dimethylmethanamine]
> 50 µM	1893 fold	FC(F)c1nnc(-c2ccc(Cn3cc(-c4csc(CN5CC[C@H](F)C5)c4)nn3)nc2)o1 [Compound 13, (S)-2-(difluoromethyl)-5-(6-((4-(5-((3-fluoropyrrolidin-1-yl)methyl)thiophen-3-yl)-1H-1,2,3-triazol-1-yl)methyl)pyridin-3-yl)-1,3,4-oxadiazole]
> 50 µM	1811 fold	FC(F)c1nnc(-c2ccc(Cn3cc(-c4csc(CN5CC[C@@H](F)C5)c4)nn3)nc2)o1 [Compound 14, (R)-2-(difluoromethyl)-5-(6-((4-(5-((3-fluoropyrrolidin-1-yl)methyl)thiophen-3-yl)-1H-1,2,3-triazol-1-yl)methyl)pyridin-3-yl)-1,3,4-oxadiazole]
> 50 µM	1237 fold	FC(F)c1nnc(-c2ccc(Cn3cc(-c4csc(CN5CCC(F)(F)CC5)c4)nn3)nc2)o1 [Compound 16, 2-(difluoromethyl)-5-(6-((4-(5-((4,4-difluoropiperidin-1-yl)methyl)thiophen-3-yl)-1H-1,2,3-triazol-1-yl)methyl)pyridin-3-yl)-1,3,4-oxadiazole]
> 50 µM	1466 fold	CC1(C)CCN(Cc2ccc(-c3cn(Cc4ccc(-c5nnc(C(F)F)o5)cn4)nn3)nc2)CC1 [Compound 17, 2-(difluoromethyl)-5-(6-((4-(5-((4,4-dimethylpiperidin-1-yl)methyl)pyridin-2-yl)-1H-1,2,3-triazol-1-yl)methyl)pyridin-3-yl)-1,3,4-oxadiazole]
> 50 µM	1845 fold	Fc1ccc(CN2CCCCC2)cc1-c1cn(Cc2ccc(-c3nnc(C(F)F)o3)cn2)nn1 [Compound 18, 2-(difluoromethyl)-5-(6-((4-(2-fluoro-5-(piperidin-1-ylmethyl)phenyl)-1H-1,2,3-triazol-1-yl)methyl)pyridin-3-yl)-1,3,4-oxadiazole]
> 50 µM	1492 fold	CC1CCN(Cc2ccc(F)c(-c3cn(Cc4ccc(-c5nnc(C(F)F)o5)cn4)nn3)c2)CC1 [Compound 19, 2-(difluoromethyl)-5-(6-((4-(2-fluoro-5-((4-methylpiperidin-1-yl)methyl)phenyl)-1H-1,2,3-triazol-1-yl)methyl)pyridin-3-yl)-1,3,4-oxadiazole]
> 50 µM	1798 fold	CN(C)Cc1ccc(F)c(-c2cn(Cc3ccc(-c4nnc(C(F)F)o4)cn3)nn2)c1 [Compound 20, 1-(3-(1-((5-(5-(difluoromethyl)-1,3,4-oxadiazol-2-yl)pyridin-2-yl)methyl)-1H-1,2,3-triazol-4-yl)-4-fluorophenyl)-N,N-dimethylmethanamine]
> 50 µM	3401 fold	Fc1ccc(-c2cn(Cc3ccc(-c4nnc(C(F)F)o4)cn3)nn2)cc1CN1CCCC1 [Compound 22, 2-(difluoromethyl)-5-(6-((4-(4-fluoro-3-(pyrrolidin-1-ylmethyl)phenyl)-1H-1,2,3-triazol-1-yl)methyl)pyridin-3-yl)-1,3,4-oxadiazole]
> 50 µM	2702 fold	CN(C)Cc1cc(-c2cn(Cc3ccc(-c4nnc(C(F)F)o4)cn3)nn2)ccc1F [Compound 23, 1-(5-(1-((5-(5-(difluoromethyl)-1,3,4-oxadiazol-2-yl)pyridin-2-yl)methyl)-1H-1,2,3-triazol-4-yl)-2-fluorophenyl)-N,N-dimethylmethanamine]
> 50 µM	2577 fold	Fc1ccc(-c2cn(Cc3ccc(-c4nnc(C(F)F)o4)cn3)nn2)cc1CN1CCCCC1 [Compound 24, 2-(difluoromethyl)-5-(6-((4-(4-fluoro-3-(piperidin-1-ylmethyl)phenyl)-1H-1,2,3-triazol-1-yl)methyl)pyridin-3-yl)-1,3,4-oxadiazole]
> 50 µM	2890 fold	CC1CCN(Cc2cc(-c3cn(Cc4ccc(-c5nnc(C(F)F)o5)cn4)nn3)ccc2F)CC1 [Compound 25, 2-(difluoromethyl)-5-(6-((4-(4-fluoro-3-((4-methylpiperidin-1-yl)methyl)phenyl)-1H-1,2,3-triazol-1-yl)methyl)pyridin-3-yl)-1,3,4-oxadiazole]
